Measurements published in PubChem BioAssay (NCI).
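Grown in 96-well plates, cells were treated for 48 hours with each compound at five concentrations. Insufficient inhibition: endpoint recorded as highest concentration tested. GI50: concentration for 50% inhibition of growth. TGI denotes the concentration required for complete inhibition of growth.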

How the values were obtained:
Assay in all cases: NCI-60 cell line screen, 48 h
[1] = tested on: 786-0 renal
[2] = tested on: A498 renal
[3] = tested on: A549 NSCLC
[4] = tested on: ACHN renal
[5] = tested on: BT-549 breast
[6] = tested on: CAKI-1 renal
[7] = tested on: CCRF-CEM leukemia
[8] = tested on: COLO 205 colon
[9] = tested on: DU-145 prostate
[10] = tested on: EKVX NSCLC
[11] = tested on: HCC-2998 colon
[12] = tested on: HCT-116 colon
[13] = tested on: HCT-15 colon
[14] = tested on: HL-60(TB) leukemia
[15] = tested on: HOP-62 NSCLC
[16] = tested on: HOP-92 NSCLC
[17] = tested on: HS 578T breast
[18] = tested on: HT29 colon
[19] = tested on: IGROV1 ovarian
[20] = tested on: K-562 leukemia
[21] = tested on: KM12 colon
[22] = tested on: LOX IMVI melanoma
[23] = tested on: M14 melanoma
[24] = tested on: MALME-3M melanoma
[25] = tested on: MCF7 breast
[26] = tested on: MDA-MB-231 breast
[27] = tested on: MDA-MB-435
[28] = tested on: MDA-MB-468 breast
[29] = tested on: MOLT-4 leukemia
[30] = tested on: NCI-H226 lung
[31] = tested on: NCI-H23 lung
[32] = tested on: NCI-H460 lung
[33] = tested on: NCI-H522 lung
[34] = tested on: NCI/ADR-RES ovarian
[35] = tested on: OVCAR-3 ovarian
[36] = tested on: OVCAR-4 ovarian
[37] = tested on: OVCAR-5 ovarian
[38] = tested on: OVCAR-8 ovarian
[39] = tested on: PC-3 prostate
[40] = tested on: RPMI-8226 leukemia
[41] = tested on: RXF 393 renal
[42] = tested on: SF-268 CNS
[43] = tested on: SF-295 CNS
[44] = tested on: SF-539 CNS
[45] = tested on: SK-MEL-2 melanoma
[46] = tested on: SK-MEL-28 melanoma
[47] = tested on: SK-MEL-5 melanoma
[48] = tested on: SK-OV-3 ovarian
[49] = tested on: SN12C renal
[50] = tested on: SNB-19 CNS
[51] = tested on: SNB-75 CNS
[52] = tested on: SR leukemia
[53] = tested on: SW-620 colon
[54] = tested on: T-47D breast
[55] = tested on: TK-10 renal
[56] = tested on: U251 CNS
[57] = tested on: UACC-257 melanoma
[58] = tested on: UACC-62 melanoma
[59] = tested on: UO-31 renal

Which GI50 [1] does the source give for CC1(C)CC[C@]2(C(=O)N3CCOCC3)CC[C@]3(C)C(=CC[C@@H]4[C@@]5(C)CC[C@H](NCO)C(C)(C)[C@@H]5CC[C@]43C)[C@H]2C1 here?
The GI50 was 0.596 µM.

What about the TGI [1] of the same compound?
The TGI was 1.31 µM.

And the GI50 [2]?
Its GI50 is 5.59 µM.

What about the TGI [2] of the same compound?
Its TGI is 10.9 µM.

What about the GI50 [3] of the same compound?
Its GI50 is 1.58 µM.

And the TGI [3]?
The TGI was 7.01 µM.

What about the GI50 [4] of the same compound?
Its GI50 is 1.72 µM.

What about the TGI [4] of the same compound?
The TGI was 6.11 µM.

What about the GI50 [5] of the same compound?
The GI50 was 6.38 µM.

What about the TGI [5] of the same compound?
Its TGI is 12.9 µM.

What about the GI50 [6] of the same compound?
Its GI50 is 0.915 µM.

What about the TGI [6] of the same compound?
Its TGI is 2.98 µM.

What about the GI50 [7] of the same compound?
Its GI50 is 1.04 µM.

And the TGI [7]?
Its TGI is 3.23 µM.

And the GI50 [8]?
Its GI50 is 0.795 µM.

And the TGI [8]?
The TGI was 1.99 µM.

And the GI50 [9]?
The GI50 was 1.38 µM.

What about the TGI [9] of the same compound?
Its TGI is 5.01 µM.

What about the GI50 [10] of the same compound?
Its GI50 is 4.57 µM.

And the TGI [10]?
Its TGI is 10 µM.

What about the GI50 [11] of the same compound?
Its GI50 is 0.836 µM.

What about the TGI [11] of the same compound?
The TGI was 2.31 µM.

What about the GI50 [12] of the same compound?
The GI50 was 0.696 µM.

And the TGI [12]?
Its TGI is 1.58 µM.

What about the GI50 [13] of the same compound?
The GI50 was 0.715 µM.

What about the TGI [13] of the same compound?
Its TGI is 1.76 µM.

And the GI50 [14]?
The GI50 was 0.484 µM.

And the TGI [14]?
The TGI was 1.22 µM.

What about the GI50 [15] of the same compound?
Its GI50 is 8.18 µM.

What about the TGI [15] of the same compound?
The TGI was 18.6 µM.

And the GI50 [16]?
The GI50 was 5.25 µM.

What about the TGI [16] of the same compound?
Its TGI is 11.3 µM.

And the GI50 [17]?
The GI50 was 5.22 µM.

And the TGI [17]?
Its TGI is 12.5 µM.

And the GI50 [18]?
The GI50 was 1.96 µM.

And the TGI [18]?
Its TGI is 18.6 µM.

And the GI50 [19]?
The GI50 was 4.66 µM.

And the TGI [19]?
Its TGI is 9.78 µM.

And the GI50 [20]?
The GI50 was 0.811 µM.

And the TGI [20]?
The TGI was 33.8 µM.

What about the GI50 [21] of the same compound?
The GI50 was 1.14 µM.

And the TGI [21]?
Its TGI is 4.26 µM.

What about the GI50 [22] of the same compound?
The GI50 was 0.576 µM.

What about the TGI [22] of the same compound?
The TGI was 1.06 µM.

What about the GI50 [23] of the same compound?
The GI50 was 4.11 µM.

What about the TGI [23] of the same compound?
The TGI was 9.71 µM.

What about the GI50 [24] of the same compound?
The GI50 was 5.2 µM.

What about the TGI [24] of the same compound?
The TGI was 9.97 µM.

And the GI50 [25]?
Its GI50 is 0.73 µM.

What about the TGI [25] of the same compound?
The TGI was 2.06 µM.

And the GI50 [26]?
Its GI50 is 1.83 µM.

And the TGI [26]?
The TGI was 5.89 µM.

And the GI50 [27]?
The GI50 was 0.998 µM.

What about the TGI [27] of the same compound?
The TGI was 5.1 µM.

And the GI50 [28]?
Its GI50 is 0.647 µM.

What about the TGI [28] of the same compound?
The TGI was 1.4 µM.

And the GI50 [29]?
Its GI50 is 0.767 µM.

And the TGI [29]?
The TGI was 2.68 µM.

What about the GI50 [30] of the same compound?
Its GI50 is 6.61 µM.

And the TGI [30]?
The TGI was 13.6 µM.

What about the GI50 [31] of the same compound?
Its GI50 is 3.74 µM.

And the TGI [31]?
Its TGI is 8.72 µM.

What about the GI50 [32] of the same compound?
Its GI50 is 1.02 µM.

And the TGI [32]?
Its TGI is 3.29 µM.

What about the GI50 [33] of the same compound?
The GI50 was 6.27 µM.

What about the TGI [33] of the same compound?
Its TGI is 13.8 µM.

What about the GI50 [34] of the same compound?
The GI50 was 1.99 µM.

And the TGI [34]?
Its TGI is 7.09 µM.

What about the GI50 [35] of the same compound?
The GI50 was 0.961 µM.

What about the TGI [35] of the same compound?
The TGI was 3.43 µM.

What about the GI50 [36] of the same compound?
The GI50 was 2.5 µM.

What about the TGI [36] of the same compound?
The TGI was 7.62 µM.

And the GI50 [37]?
The GI50 was 4.47 µM.

What about the TGI [37] of the same compound?
Its TGI is 9.1 µM.

And the GI50 [38]?
Its GI50 is 1.52 µM.

What about the TGI [38] of the same compound?
Its TGI is 6.3 µM.

And the GI50 [39]?
Its GI50 is 4.6 µM.

What about the TGI [39] of the same compound?
Its TGI is 10.6 µM.

What about the GI50 [40] of the same compound?
Its GI50 is 1.42 µM.

What about the TGI [40] of the same compound?
The TGI was 7.17 µM.

What about the GI50 [41] of the same compound?
The GI50 was 0.886 µM.

And the TGI [41]?
Its TGI is 2.69 µM.

What about the GI50 [42] of the same compound?
The GI50 was 4.78 µM.

And the TGI [42]?
The TGI was 10.4 µM.

What about the GI50 [43] of the same compound?
Its GI50 is 1.86 µM.

What about the TGI [43] of the same compound?
Its TGI is 6.7 µM.

What about the GI50 [44] of the same compound?
Its GI50 is 1.12 µM.

What about the TGI [44] of the same compound?
The TGI was 4.29 µM.

And the GI50 [45]?
The GI50 was 5.95 µM.

What about the TGI [45] of the same compound?
The TGI was 11.4 µM.

What about the GI50 [46] of the same compound?
Its GI50 is 5.16 µM.

What about the TGI [46] of the same compound?
Its TGI is 9.94 µM.

What about the GI50 [47] of the same compound?
Its GI50 is 5.65 µM.

What about the TGI [47] of the same compound?
The TGI was 11 µM.

And the GI50 [48]?
Its GI50 is 6.81 µM.

And the TGI [48]?
Its TGI is 13.3 µM.

What about the GI50 [49] of the same compound?
The GI50 was 2.36 µM.

And the TGI [49]?
The TGI was 6.94 µM.

And the GI50 [50]?
Its GI50 is 5.71 µM.

And the TGI [50]?
Its TGI is 11.3 µM.

What about the GI50 [51] of the same compound?
Its GI50 is 4.39 µM.

And the TGI [51]?
The TGI was 9.51 µM.

And the GI50 [52]?
The GI50 was 0.682 µM.

And the TGI [52]?
Its TGI is 2.14 µM.

And the GI50 [53]?
Its GI50 is 0.552 µM.

What about the TGI [53] of the same compound?
Its TGI is 1.06 µM.

And the GI50 [54]?
Its GI50 is 5.33 µM.

What about the TGI [54] of the same compound?
Its TGI is 15.6 µM.

What about the GI50 [55] of the same compound?
The GI50 was 7.05 µM.

And the TGI [55]?
The TGI was 13.5 µM.

What about the GI50 [56] of the same compound?
Its GI50 is 4.14 µM.

And the TGI [56]?
The TGI was 9.49 µM.

What about the GI50 [57] of the same compound?
The GI50 was 5.65 µM.

What about the TGI [57] of the same compound?
Its TGI is 10.7 µM.

What about the GI50 [58] of the same compound?
Its GI50 is 5.86 µM.

What about the TGI [58] of the same compound?
The TGI was 10.7 µM.

What about the GI50 [59] of the same compound?
The GI50 was 4.62 µM.

What about the TGI [59] of the same compound?
The TGI was 9.34 µM.
